Results: the supplement of paper PMC6045584
± gives the standard deviation of the averaged measurements.

Assays:
SUNITINIB = compound: CCN(CC)CCNC(=O)c1c(C)[nH]c(/C=C2\C(=O)Nc3ccc(F)cc32)c1C [SUNITINIB]; experiment: surviving fraction relative to DMSO-only wells; higher = less growth inhibition; conditions: exposure time: 5 days
Method in brief: (§1)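 Tumour cell lines were seeded in log phase at 250–500 cells per well into 384-well plates. Starting 24 hours later, inhibitors were present continuously for five days at 0.5, 1, 5, 10, 50, 100, 500 and 1000 nM. Surviving fraction, from CellTiter-Glo luminescence, is normalised to the median of DMSO-only wells. Three screens per line were required, with replicate Pearson r >0.7 and median Z' >0.3 for a line to be kept.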

MK0752 = compound: O=C(O)CC[C@H]1CC[C@@](c2cc(F)ccc2F)(S(=O)(=O)c2ccc(Cl)cc2)CC1 [MK0752]; experiment: as above; conditions: exposure time: 5 days
Method in brief: as §1

Row | Test System | surviving fraction (SUNITINIB; 0.5 nM) | surviving fraction (SUNITINIB; 1 nM) | surviving fraction (SUNITINIB; 5 nM) | surviving fraction (SUNITINIB; 10 nM) | surviving fraction (SUNITINIB; 50 nM) | surviving fraction (SUNITINIB; 100 nM) | surviving fraction (SUNITINIB; 500 nM) | surviving fraction (SUNITINIB; 1000 nM) | surviving fraction (MK0752; 0.5 nM) | surviving fraction (MK0752; 1 nM) | surviving fraction (MK0752; 5 nM) | surviving fraction (MK0752; 10 nM) | surviving fraction (MK0752; 50 nM) | surviving fraction (MK0752; 100 nM) | surviving fraction (MK0752; 500 nM) | surviving fraction (MK0752; 1000 nM)
1 | HCC1806 BREAST | 0.677 ± 0.078 | 0.59 ± 0.41 | 0.667 ± 0.45 | 0.566 ± 0.43 | 1 ± 0.091 | 0.978 ± 0.11 | 0.677 ± 0.039 | 0.397 ± 0.044 | 0.974 ± 0.05 | 1.15 ± 0.15 | 1.23 ± 0.1 | 1.21 ± 0.086 | 1.28 ± 0.043 | 1.23 ± 0.14 | 1.19 ± 0.075 | 1.25 ± 0.025
2 | HCC1954 BREAST | 0.363 ± 0.098 | 0.365 ± 0.15 | 0.38 ± 0.16 | 0.434 ± 0.2 | 0.5 ± 0.045 | 0.555 ± 0.052 | 0.616 ± 0.092 | 0.65 ± 0.0088 | 0.922 ± 0.069 | 0.747 ± 0.054 | 1.18 ± 0.13 | 1.15 ± 0.15 | 1 ± 0.05 | 0.904 ± 0.02 | 0.741 ± 0.05 | 0.808 ± 0.073
3 | HCT15 LARGE INTESTINE | 0.882 ± 0.015 | 0.73 ± 0.028 | 0.816 ± 0.034 | 0.449 ± 0.021 | 0.952 ± 0.049 |  | 0.855 ± 0.08 | 0.119 ± 0.015 | 1.1 ± 0.032 | 1.08 ± 0.05 | 1.11 ± 0.032 | 1.09 ± 0.055 | 1.09 ± 0.029 | 1.1 ± 0.024 | 1.09 ± 0.044 | 1.082 ± 0.0067
4 | HELA CERVIX | 0.906 ± 0.047 | 0.892 ± 0.046 |  | 0.853 ± 0.069 | 0.995 ± 0.044 | 0.948 ± 0.052 | 1.03 ± 0.035 | 0.745 ± 0.05 | 1.07 ± 0.098 | 1.14 ± 0.056 | 1.08 ± 0.023 | 1.09 ± 0.035 | 1.13 ± 0.16 | 1.2 ± 0.087 | 1.2 ± 0.034 | 1.2 ± 0.09
5 | HMLE3 BREAST | 0.887 ± 0.037 | 0.715 ± 0.058 | 0.816 ± 0.019 | 0.241 ± 0.053 | 0.867 ± 0.064 | 0.832 ± 0.061 | 0.498 ± 0.018 | 0.108 ± 0.0078 | 0.958 ± 0.049 | 1.06 ± 0.039 | 1.08 ± 0.024 | 1.06 ± 0.062 | 0.999 ± 0.086 | 1.02 ± 0.066 | 0.979 ± 0.1 | 0.978 ± 0.069
6 | HMT3552 BREAST |  | 0.96 |  |  |  | 1.21 | 0.423 | 0.203 | 1.05 | 1.07 | 1.01 | 0.985 | 1.04 | 1.16 | 1.11 | 1.12
7 | HOS BONE | 0.921 ± 0.015 | 0.937 ± 0.025 | 0.8943 ± 0.0061 | 0.884 ± 0.021 | 0.954 ± 0.01 | 0.9297 ± 0.009 | 0.786 ± 0.017 | 0.471 ± 0.0095 | 1.03 ± 0.026 | 1.02 ± 0.037 | 1.058 ± 0.01 | 1.04 ± 0.016 | 1.1 ± 0.024 | 1.1 ± 0.035 | 1.03 ± 0.046 | 1.1 ± 0.023
8 | HOSMNG BONE | 0.939 ± 0.1 |  | 0.969 ± 0.13 |  | 1.06 ± 0.12 | 0.999 ± 0.18 | 0.803 ± 0.072 | 0.44 ± 0.037 | 0.936 ± 0.023 | 1.02 ± 0.037 | 0.959 ± 0.052 | 0.981 ± 0.046 | 1.05 ± 0.028 | 1.05 ± 0.029 | 1.06 ± 0.061 | 1.04 ± 0.024
9 | HS578T BREAST | 0.838 ± 0.15 | 0.824 ± 0.057 |  | 0.881 ± 0.049 |  |  | 0.871 ± 0.073 | 0.426 ± 0.054 | 1.02 ± 0.061 | 0.87 ± 0.15 | 0.883 ± 0.11 | 1.01 ± 0.11 | 0.946 ± 0.046 | 0.9 ± 0.056 | 0.833 ± 0.11 | 0.936 ± 0.12
10 | HSSYII SYNOVIAL | 0.771 ± 0.076 | 0.694 ± 0.029 | 0.755 ± 0.012 | 0.216 ± 0.01 |  | 0.765 ± 0.045 | 0.418 ± 0.02 | 0.114 ± 0.0013 | 0.985 ± 0.056 | 1 ± 0.056 | 1.03 ± 0.063 | 1.02 ± 0.059 | 1.018 ± 0.0035 | 1.01 ± 0.017 | 0.978 ± 0.029 | 0.955 ± 0.046
11 | HT1080 SOFT TISSUE | 0.9787 ± 0.0091 |  | 0.997 ± 0.021 | 0.97 ± 0.07 |  | 1.1 ± 0.031 | 0.766 ± 0.032 | 0.559 ± 0.032 | 0.997 ± 0.018 | 1.02 ± 0.034 | 1.04 ± 0.026 | 1 ± 0.051 | 0.948 ± 0.019 | 1.02 ± 0.04 | 0.984 ± 0.0089 | 0.989 ± 0.029
12 | HU09 BONE | 0.865 ± 0.14 |  | 0.768 ± 0.076 | 0.637 ± 0.048 | 0.498 ± 0.051 | 0.485 ± 0.073 | 0.288 ± 0.035 | 0.161 ± 0.011 | 0.995 ± 0.11 | 1.06 ± 0.052 | 1.11 ± 0.052 | 1.181 ± 0.0032 | 1.12 ± 0.069 | 1.06 ± 0.088 | 0.984 ± 0.14 | 1.03 ± 0.063
13 | JIMT1 BREAST | 0.826 ± 0.025 | 0.81 ± 0.07 | 0.841 ± 0.041 | 0.848 ± 0.069 | 1.05 ± 0.056 | 1.04 ± 0.075 | 0.776 ± 0.098 | 0.54 ± 0.063 | 0.966 ± 0.0054 | 0.988 ± 0.018 | 0.997 ± 0.042 | 0.97 ± 0.042 | 0.984 ± 0.021 | 1.04 ± 0.036 | 0.939 ± 0.021 | 0.997 ± 0.018
14 | JURKAT HAEMATOPOIETIC AND LYMPHOID TISSUE | 1.03 ± 0.023 | 1 ± 0.015 | 1.009 ± 0.0064 | 1.01 ± 0.025 | 1.01 ± 0.026 | 1.04 ± 0.012 | 0.677 ± 0.012 | 0.0883 ± 0.0087 | 1.06 ± 0.026 | 1.07 ± 0.021 | 1.07 ± 0.012 | 1.02 ± 0.051 | 1.04 ± 0.017 | 1.01 ± 0.026 | 0.988 ± 0.04 | 0.976 ± 0.023
15 | KPD BONE | 0.898 ± 0.04 | 0.875 ± 0.031 | 0.928 ± 0.042 |  | 0.9567 ± 0.007 | 0.972 ± 0.022 | 0.73 ± 0.031 | 0.441 ± 0.046 | 0.998 ± 0.054 | 0.986 ± 0.046 | 1.12 ± 0.042 | 1.05 ± 0.035 | 1.053 ± 0.0087 | 1.1 ± 0.073 | 0.951 ± 0.067 | 0.915 ± 0.06
16 | LM7 BONE | 0.786 ± 0.068 | 0.767 ± 0.028 | 0.81 ± 0.087 | 0.731 ± 0.05 | 0.93 ± 0.039 | 0.794 ± 0.016 | 0.342 ± 0.009 | 0.177 ± 0.018 | 0.915 ± 0.045 | 0.93 ± 0.078 | 1.08 ± 0.096 | 0.996 ± 0.098 | 1.03 ± 0.035 | 1.05 ± 0.048 | 0.937 ± 0.11 | 0.945 ± 0.063
17 | MCF7 BREAST | 0.786 ± 0.02 | 0.822 ± 0.023 | 0.8113 ± 0.0079 | 0.706 ± 0.0095 |  | 0.842 ± 0.015 | 0.751 ± 0.012 | 0.607 ± 0.015 | 0.922 ± 0.075 | 0.916 ± 0.04 | 0.916 ± 0.0061 | 0.905 ± 0.076 | 0.976 ± 0.051 | 0.913 ± 0.07 | 0.964 ± 0.067 | 0.94 ± 0.029
18 | MDAMB134 BREAST | 0.675 ± 0.021 | 0.777 ± 0.087 | 0.715 ± 0.14 | 0.675 ± 0.022 | 0.887 ± 0.067 |  | 1.05 ± 0.22 |  | 1.08 ± 0.067 | 1.14 ± 0.093 | 0.96 ± 0.16 | 1.16 ± 0.079 | 0.922 ± 0.035 | 1.09 ± 0.14 | 1 ± 0.063 | 0.934 ± 0.014
19 | MDAMB157 BREAST | 0.794 ± 0.024 | 0.802 ± 0.08 | 0.87 ± 0.07 | 0.869 ± 0.12 | 0.83 ± 0.032 | 0.74 ± 0.072 | 0.613 ± 0.064 | 0.404 ± 0.062 | 0.881 ± 0.054 | 0.981 ± 0.045 | 0.969 ± 0.14 | 1.05 ± 0.022 | 1.11 ± 0.16 | 1.02 ± 0.15 | 0.971 ± 0.07 | 0.962 ± 0.065
20 | MDAMB231 BREAST | 0.955 ± 0.016 | 0.9679 ± 0.0028 | 0.979 ± 0.012 | 0.976 ± 0.033 | 1.09 ± 0.017 | 1.12 ± 0.017 | 1.04 ± 0.0064 | 0.848 ± 0.011 | 0.984 ± 0.033 | 0.993 ± 0.015 | 1.02 ± 0.019 | 1.01 ± 0.02 | 1.01 ± 0.013 | 1.01 ± 0.018 | 0.9137 ± 0.0079 | 0.877 ± 0.01
21 | MDAMB361 BREAST | 0.683 ± 0.049 | 0.717 ± 0.023 | 0.696 ± 0.058 | 0.651 ± 0.025 | 0.82 ± 0.069 |  | 0.8 ± 0.011 | 0.527 ± 0.054 | 0.833 ± 0.044 | 0.904 ± 0.077 | 0.873 ± 0.044 | 0.851 ± 0.084 | 0.893 ± 0.06 | 0.91 ± 0.064 | 0.884 ± 0.056 | 0.825 ± 0.073
22 | MDAMB436 BREAST | 0.761 ± 0.07 | 0.78 ± 0.046 | 0.79 ± 0.011 | 0.79 ± 0.099 | 0.85 ± 0.087 | 0.913 ± 0.071 | 0.718 ± 0.061 | 0.596 ± 0.023 | 0.928 ± 0.052 | 0.895 ± 0.12 | 0.885 ± 0.051 | 0.901 ± 0.097 | 1.02 ± 0.13 | 0.881 ± 0.08 | 0.897 ± 0.062 | 0.856 ± 0.036
